This note sets out measurements from the supplement of paper PMC6965134.

The series can be described thus: TIMS collisional cross section (CCS, N2) of the lipid ion; higher = larger ion cross section. The following applies: ionization mode: positive, one isomer drawn.

Molecules are shown by their SMILES. ± gives the standard deviation of the averaged measurements.

As for `CC/C=C\C/C=C\C/C=C\C/C=C\C/C=C\C/C=C\CCC(=O)O[C@H](COC(=O)CCCCCCCCCCCCC)COP(=O)([O-])OCC[N+](C)(C)C` [PC 14:0_22:6@] (ion (formula + adduct): [C44H76NO8P+H] 1+), the “TIMS collisional cross section” value (sample type: HeLa) turned out to be 285.3 Å².

Consider `CCCCCC/C=C\CCCCCCCC(=O)OC[C@@H](COC(=O)CCCCCCCCCCCC)OC(=O)CCCCCCCCCCCCC` [TG 13:0_14:0_16:1] (ion (formula + adduct): [C46H86O6+NH4] 1+), for which the “TIMS collisional cross section” value is 296.4 Å² (sample type: HeLa), 296 Å² (sample type: Liver) and 296.1 Å² (sample type: plasma).

In the case of `CCCCC/C=C\C/C=C\C/C=C\C/C=C\CCCCCC(=O)OC[C@@H](COC(=O)CCCCCCCCCCCCCCCCC)OC(=O)CCCCCCC/C=C\C/C=C\CCCCC` [TG 18:0_18:2_22:4] (ion (formula + adduct): [C61H106O6+NH4] 1+), the “TIMS collisional cross section” value (sample type: HeLa) is 335.4 Å².

For the compound `CC/C=C\C/C=C\C/C=C\C/C=C\C/C=C\C/C=C\CCC(=O)OC[C@@H](COC(=O)CCCCCCC/C=C\CCCCCCCC)OC(=O)CCCCCCCCCCCCCCCCCCCCC` [TG 18:1_22:0_22:6] (ion (formula + adduct): [C65H112O6+NH4] 1+), the “TIMS collisional cross section” value (sample type: Liver) is given as 344.7 Å².

As for `CCCCCCCCCCCCCCCCCCCCCC(=O)O[C@@H](CO)COC(=O)CCCCCCCCCCCCCCC` [DG 16:0_22:0_0:0] (ion (formula + adduct): [C41H80O5+NH4] 1+), the “TIMS collisional cross section” value (sample type: HeLa) stood at 279.1 Å².

As to `CCCCC/C=C\C/C=C\CCCCCCCC(=O)O[C@H](COC(=O)CCCCCCC/C=C\CCCCCCCC)COC(=O)CCCCCCC/C=C\CCCCCCCCC` [TG 18:1_18:2_19:1] (ion (formula + adduct): [C58H104O6+NH4] 1+), the “TIMS collisional cross section” value was 327.7 Å² (sample type: HeLa), 327 Å² (sample type: Liver) and 327.3 Å² (sample type: plasma).

For `CC/C=C\C/C=C\C/C=C\C/C=C\C/C=C\C/C=C\CCC(=O)OC[C@@H](COC(=O)CCCCCCC/C=C\CCCCCC)OC(=O)CCCCC/C=C\C/C=C\C/C=C\C/C=C\C/C=C\CC` [TG 16:1_22:5_22:6] (ion (formula + adduct): [C63H98O6+NH4] 1+), the “TIMS collisional cross section” value (sample type: HeLa) came out at 332.4 Å².

With `CCCCCCCCCCCCCCCC(=O)O[C@@H](CO)COC(=O)CCCCCCCCCCCCC` [DG 14:0_16:0_0:0] (ion (formula + adduct): [C33H64O5+NH4] 1+), the “TIMS collisional cross section” value is 252.4 Å² (sample type: HeLa) and 252.7 Å² (sample type: Liver).

With `CCCCCCC/C=C\CCCCCCCC(=O)OC[C@H](COC(=O)CCCCCCCCCCC/C=C\CCCCCCCC)OC(=O)CCCCCCCCC/C=C\CCCCCCCC` [TG 17:1_20:1_22:1] (ion (formula + adduct): [C62H114O6+NH4] 1+), the “TIMS collisional cross section” value (sample type: Liver) is listed as 340 Å².

Consider `CCCCCCCCCCCCCCCC(=O)OCC(CO)OC(=O)CCCCCCCCCCCCCCC` (stereo not drawn) [DG 16:0_16:0_0:0] (ion (formula + adduct): [C35H68O5+Na] 1+), for which, where the note is “sample type: plasma”, the “TIMS collisional cross section” value is given as 253.8 Å².

For `CC/C=C\C/C=C\C/C=C\C/C=C\C/C=C\C/C=C\CCC(=O)OC[C@@H](COC(=O)CCCCCCC/C=C\CCCCCCC)OC(=O)CCCCCCC/C=C\CCCCCCCC` [TG 17:1_18:1_22:6] (ion (formula + adduct): [C60H100O6+NH4] 1+), the “TIMS collisional cross section” value (sample type: HeLa) came to 328.2 Å².

As for `CCCCCCCC/C=C\CCCCCCCCCC(=O)O[C@H](COC(=O)CCCCCCC/C=C\CCCCCCCC)COP(=O)(O)OCCN` [PE 18:1@_20:1] (ion (formula + adduct): [C43H82NO8P+H] 1+), the “TIMS collisional cross section” value (sample type: HeLa) was 286.2 Å².

Consider `CCCCCCCCCCCCCCCC(=O)OC[C@@H](COC(=O)CCCCCCCCCCCC)OC(=O)CCCCCCCCCCCCC` [TG 13:0_14:0_16:0] (ion (formula + adduct): [C46H88O6+NH4] 1+), for which the “TIMS collisional cross section” value reads like this: (sample type: HeLa) 298.2 Å²; (sample type: Liver) 298.5 Å²; (sample type: plasma) 298.4 ± 0.14 Å².

Consider `CCCCCCCC/C=C\CCCCCCCC(=O)OC[C@@H](COC(=O)CCCCCCCCCCCCCCCC)OC(=O)CCCCCCCCCCCCCCCCC` [TG 17:0_18:0_18:1] (ion (formula + adduct): [C56H106O6+NH4] 1+), for which the “TIMS collisional cross section” value is, setting by setting: (sample type: HeLa) 327.3 Å²; (sample type: Liver) 327.7 Å²; (sample type: plasma) 327.4 Å².

In the case of `CCCCC/C=C\C/C=C\CCCCCCCCCCCC(=O)OC[C@@H](COC(=O)CCCCCCCCCCCCCCC)OC(=O)CCCCCCCCCCCCCCCCCCCC` [TG 16:0_21:0_22:2] (ion (formula + adduct): [C62H116O6+NH4] 1+), the “TIMS collisional cross section” value (sample type: plasma) is given as 342.3 Å².

In the case of `CCCCCC/C=C\CCCCCCCC(=O)OC[C@H](COC(=O)CCCCCCC/C=C\CCCCCCCC)OC(=O)CCCCCCC/C=C\CCCCCC` [TG 16:1_16:1_18:1] (ion (formula + adduct): [C53H96O6+NH4] 1+), the “TIMS collisional cross section” value (sample type: HeLa) was determined as 313.4 Å².

`CCCCCCCC/C=C\CCCCCCCCCCCCCC(=O)N[C@@H](CO)[C@H](O)/C=C/CCCCCCCCCCCCC` [Cer d18:1_24:1@] (ion (formula + adduct): [C42H81NO3+H] 1+): the “TIMS collisional cross section” value (sample type: HeLa) was 278.2 Å², the “TIMS collisional cross section” value (sample type: Liver) is listed as 283 Å² and the “TIMS collisional cross section” value (sample type: plasma) amounted to 280.9 ± 3.8 Å².

Consider `CC/C=C\C/C=C\C/C=C\C/C=C\C/C=C\C/C=C\CCC(=O)OC[C@@H](COC(=O)CCCCCCC/C=C\CCCCCCCC)OC(=O)CCCCCCCCC/C=C\CCCCCCCC` [TG 18:1_20:1_22:6] (ion (formula + adduct): [C63H106O6+NH4] 1+), for which the “TIMS collisional cross section” value (sample type: HeLa) is 336.5 Å².

Turning to `CCCCCCCCCCCCCCCCCCCC(=O)OC[C@@H](COC(=O)CCCCCCCCCCCCCCC)OC(=O)CCCCCCCCCCCCCCCC` [TG 16:0_17:0_20:0] (ion (formula + adduct): [C56H108O6+NH4] 1+), the “TIMS collisional cross section” value (sample type: HeLa) was 328.6 Å².

Take `CC/C=C\C/C=C\C/C=C\CCCCCCCC(=O)O[C@@H](COC(=O)CCC/C=C\C/C=C\C/C=C\C/C=C\CCCCC)COC(=O)CCCCCCC/C=C\C/C=C\CCCCC` [TG 18:2_18:3_20:4] (ion (formula + adduct): [C59H96O6+NH4] 1+): the “TIMS collisional cross section” value (sample type: Liver) is given as 321.6 Å² and the “TIMS collisional cross section” value (sample type: plasma) was determined as 321.6 Å².

Turning to `CCCCC/C=C\C/C=C\CCCCCCCC(=O)O[C@H](COC(=O)CCCCCCC/C=C\CCCCCCCC)COC(=O)CCCCCCCCCCCCCCCCCC` [TG 18:1_18:2_19:0] (ion (formula + adduct): [C58H106O6+NH4] 1+), the “TIMS collisional cross section” value (sample type: Liver) is recorded as 329.2 Å².

For `CCCCC/C=C\C/C=C\C/C=C\CCCCC(=O)OC[C@@H](O)COP(=O)(O)OCCN` [LPE 18:3] (ion (formula + adduct): [C23H42NO7P+H] 1+), where the note is “sample type: plasma”, the “TIMS collisional cross section” value stood at 208.3 Å².

Regarding `CCCCCCCCCCCCCCCCCC(=O)OC[C@@H](O)COP(=O)(O)OCCN` [LPE 18:0] (ion (formula + adduct): [C23H48NO7P+H] 1+), the “TIMS collisional cross section” value (sample type: plasma) is 221.8 Å².

`CCCCC/C=C\C/C=C\C/C=C\C/C=C\CCCC(=O)O[C@H](COC(=O)CCCCCCCCCCCCCCCCCC)COP(=O)([O-])OCC[N+](C)(C)C` [PC 19:0@_20:4] (ion (formula + adduct): [C47H86NO8P+H] 1+): where the note is “sample type: Liver”, the “TIMS collisional cross section” value was determined as 298 Å².

As to `CCCCC/C=C\C/C=C\C/C=C\C/C=C\CCCC(=O)O[C@H](COCCCCCCCCCCCCCCCC)COP(=O)(O)OCCN` [PE O- 16:0@_20:4] (ion (formula + adduct): [C41H76NO7P+H] 1+), the “TIMS collisional cross section” value (sample type: plasma) amounted to 275.8 Å².

For the compound `CCCCCCCC/C=C\CCCCCCCC(=O)OC[C@@H](COC(=O)CCCCCCCCCCCCCC)OC(=O)CCCCCCCCCCCCCCC` [TG 15:0_16:0_18:1] (ion (formula + adduct): [C52H98O6+NH4] 1+), the “TIMS collisional cross section” value reads like this: (sample type: HeLa) 315.2 Å²; (sample type: plasma) 315.47 ± 0.058 Å².

On to `CCCCCCCCCC/C=C\CCCCCCCC(=O)OC[C@@H](O)COP(=O)([O-])OCC[N+](C)(C)C` [LPC 20:1_0:0] (ion (formula + adduct): [C28H56NO7P+H] 1+), for which the “TIMS collisional cross section” value is, setting by setting: (sample type: Liver) 239 Å²; (sample type: plasma) 239.3 Å².

With `CCCCCCCC/C=C\CCCCCCCC(=O)O[C@H](CO/C=C\CCCCCCCCCCCCCCCC)COP(=O)(O)OCCN` [PE P- 18:0@_18:1] (ion (formula + adduct): [C41H80NO7P+H] 1+), for the setting “sample type: plasma”, the “TIMS collisional cross section” value is 281.4 Å².

`CCCCCC/C=C\CCCCCCCC(=O)OC[C@@H](COC(=O)CCCCCCCCCCCCC)OC(=O)CCCCCCC/C=C\CCCCCC` [TG 14:0_16:1_16:1] (ion (formula + adduct): [C49H90O6+NH4] 1+): the “TIMS collisional cross section” value reads like this: (sample type: HeLa) 302.9 ± 0.28 Å²; (sample type: plasma) 303.5 Å².

On to `CC/C=C\C/C=C\C/C=C\C/C=C\C/C=C\C/C=C\CCC(=O)OC[C@H](COP(=O)(O)OCCN)OC(=O)CCCCCCC/C=C\CCCCCC` [PE 22:6@_16:1] (ion (formula + adduct): [C43H72NO8P+H] 1+), for which, under “sample type: HeLa”, the “TIMS collisional cross section” value is reported as 275 Å².

With `CCCCCC/C=C\CCCCCCCC(=O)O[C@H](COC(=O)CCCCCCCCCCCCCCC)COP(=O)([O-])OCC[N+](C)(C)C` [PC 16:0@_16:1] (ion (formula + adduct): [C40H78NO8P+H] 1+), the “TIMS collisional cross section” value runs as follows: (sample type: HeLa) 281.7 Å²; (sample type: plasma) 282.2 Å².

Regarding `CCCCC/C=C/C/C=C/C/C=C/C/C=C/CCCC(=O)OC[C@H](COP(=O)([O-])OCC[N+](C)(C)C)OC(=O)CCC/C=C/C/C=C/C/C=C/C/C=C/CCCCC` [PC 20:4_20:4] (ion (formula + adduct): [C48H80NO8P+H] 1+), the “TIMS collisional cross section” value (sample type: HeLa) amounted to 292.7 Å².
